Test results published in PubChem BioAssay (NCI).
“And” between values parts separate entries of the source, which are not always exact repeats. Identical values can stand only once.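 Briefly, cells in 96-well plates were exposed to five compound concentrations for 48 h, and endpoints were estimated by linear interpolation. GI50 is the concentration that inhibits growth by half. At the TGI there is no net growth.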

Columns and labels:
Experiment in all cases: NCI anticancer screen, dose series, 48 h
SN12C renal = test system: SN12C renal
MOLT-4 leukemia = test system: MOLT-4 leukemia
K-562 leukemia = test system: K-562 leukemia
MDA-MB-435 = test system: MDA-MB-435
HT29 colon = test system: HT29 colon
EKVX NSCLC = test system: EKVX NSCLC
OVCAR-4 ovarian = test system: OVCAR-4 ovarian
LOX IMVI melanoma = test system: LOX IMVI melanoma
NCI-H522 lung = test system: NCI-H522 lung
RPMI-8226 leukemia = test system: RPMI-8226 leukemia

Structure (SMILES)	GI50 (SN12C renal)	TGI (SN12C renal)	GI50 (MOLT-4 leukemia)	TGI (MOLT-4 leukemia)	GI50 (K-562 leukemia)	TGI (K-562 leukemia)	GI50 (MDA-MB-435)	TGI (MDA-MB-435)	GI50 (HT29 colon)	TGI (HT29 colon)	GI50 (EKVX NSCLC)	TGI (EKVX NSCLC)	GI50 (OVCAR-4 ovarian)	TGI (OVCAR-4 ovarian)	GI50 (LOX IMVI melanoma)	TGI (LOX IMVI melanoma)	GI50 (NCI-H522 lung)	TGI (NCI-H522 lung)	GI50 (RPMI-8226 leukemia)	TGI (RPMI-8226 leukemia)
Cc1nc(N)sc1C(=O)Nc1cc(C(=O)NCCCN(C)C)n(C)c1	> 100 µM	> 100 µM	> 100 µM	> 100 µM	> 100 µM	> 100 µM	> 100 µM	> 100 µM	> 100 µM	> 100 µM	> 100 µM	> 100 µM	> 100 µM	> 100 µM	> 100 µM	> 100 µM	> 100 µM	> 100 µM	60.1 µM	> 100 µM
COc1cc2nc3cc([N+](=O)[O-])ccc3c(NCCCNCC(C)(C)O)c2cc1OC	0.232 µM	1.11 µM	0.372 µM	6.67 µM	0.299 µM	1.68 µM	0.4 µM	1.55 µM	0.212 µM	0.586 µM	1.21 µM	3.97 µM	0.198 µM	0.777 µM	0.208 µM	0.485 µM	0.181 µM	0.425 µM	0.565 µM	4.01 µM
COc1ccc2c(c1)[n+](=O)c(C(=O)/C=C/c1cc(OC)c(OC)c(OC)c1)c(C)n2[O-]	28.2 µM	> 100 µM	> 100 µM	> 100 µM	> 100 µM	> 100 µM	> 100 µM	> 100 µM	> 100 µM	> 100 µM	1.97 µM	15.1 µM	> 100 µM	> 100 µM	16 µM	47.6 µM	19 µM	56.6 µM	47.2 µM	> 100 µM
Nc1nc(N)c2nc(CNc3ccc(C(=O)NC(CCCNC(=O)c4ccccc4C(=O)O)C(=O)O)cc3)cnc2n1 (stereo unspecified)	0.00227 µM	> 100 µM	0.00353 µM	> 100 µM	< 0.0242 µM and 0.000381 µM	> 100 µM		> 100 µM	0.00102 µM	> 100 µM		> 100 µM	> 100 µM	> 100 µM	0.000373 µM	> 100 µM	0.016 µM	> 100 µM		> 100 µM
COC1=Nc2ccccc2S(=O)(=O)C=C1		31.7 µM	0.489 µM and 0.44 µM	2.47 µM				24.8 µM		26.7 µM		32.1 µM		27.8 µM		10.9 µM		2.81 µM		4.81 µM
CCCCn1sc(=O)n(Cc2ccc(CNC(=O)OCc3ccc4c(Br)cc(Br)c(O)c4n3)cc2)c1=O	0.53 µM	> 100 µM	0.895 µM	> 100 µM	0.434 µM	> 100 µM	0.257 µM	0.731 µM	28.6 µM	> 100 µM	> 40.6 µM	> 100 µM	0.701 µM	> 100 µM	0.403 µM	> 100 µM	0.264 µM		0.501 µM	> 100 µM
C#CCOc1cccc(Nc2ncnc3ccc(NC(=O)CCl)cc23)c1	0.3 µM	> 79.8 µM	0.0864 µM	> 89.5 µM	0.117 µM	> 100 µM	1.4 µM	20.2 µM	0.0981 µM	6.87 µM	3.5 µM	23.6 µM	5.49 µM	25.6 µM	0.0933 µM	3.89 µM	0.777 µM	3.97 µM	1.22 µM	13.6 µM
CC(=O)[O][Hg][c]1ccccc1	0.234 µM	0.644 µM	0.19 µM	0.551 µM	0.294 µM	1.31 µM	0.808 µM	2.19 µM	0.626 µM	2.46 µM	1.46 µM	3.98 µM	0.43 µM	2.24 µM	0.227 µM	0.696 µM	0.138 µM	0.292 µM	0.283 µM	1.3 µM
COc1ccc(-c2cc(=O)c3c(O)cc(C)cc3o2)cc1OC		> 100 µM		> 100 µM		> 100 µM		> 100 µM		> 100 µM		> 100 µM		> 100 µM		> 100 µM		> 100 µM		> 100 µM
O=C1C(Cl)=C(Nc2cccc(O)c2)C(=O)N1c1ccccc1Cl	17.3 µM	46.4 µM	15.8 µM	38.1 µM	25 µM	63.2 µM	37.2 µM	> 100 µM	24.6 µM	89.2 µM	76.1 µM	> 100 µM	40.4 µM	> 100 µM	20.1 µM	52.6 µM	17.3 µM	41.8 µM	10.4 µM	35.1 µM
